Data on 13 molecules can be found in patent publication US9062066B2, “Anti-inflammatory compound having inhibitory activity against multiple tyrosine kinases and pharmaceutical composition containing same” (KOREA INSTITUTE OF SCIENCE AND TECHNOLOGY, priority 2010, dated 2015).

The target of assay [1] is c-Src tyrosine kinase (Homo sapiens (Human), UniProt P12931). Put plainly: in vitro c-Src tyrosine kinase inhibition (32P-ATP, poly(D4Y)n substrate). Type of assay: biochemical. The following applies: for inhibition at 1 µM: read-out: % inhibition against c-Src.
The target of assay [2] is Hck tyrosine kinase (Homo sapiens (Human), UniProt P08631). The assay can be described thus: in vitro Hck tyrosine kinase inhibition. Format: biochemical. The following applies: for inhibition at 1 µM: read-out: % inhibition against Hck.
The target of assay [3] is Fgr tyrosine kinase (Homo sapiens (Human), UniProt P09769). Put plainly: in vitro Fgr tyrosine kinase inhibition. Type of assay: biochemical. The following applies: for inhibition at 1 µM: read-out: % inhibition against Fgr.
In assay [4] the target is Lyn tyrosine kinase (Homo sapiens (Human), UniProt P07948). The assay can be described thus: in vitro Lyn tyrosine kinase inhibition. The following applies: for inhibition at 1 µM: read-out: % inhibition against Lyn. Type of assay: biochemical.
Assay [5] deals with DDR1 tyrosine kinase (Homo sapiens (Human), UniProt Q08345). The assay can be described thus: in vitro DDR1 tyrosine kinase inhibition (GST-fused kinase domain). Type of assay: biochemical. The conditions noted are these: for inhibition at 1 µM: read-out: % inhibition against DDR1.
Assay [6] concerns the target DDR2 tyrosine kinase (Homo sapiens (Human), UniProt Q16832). The assay can be described thus: in vitro DDR2 tyrosine kinase inhibition (GST-fused kinase domain). Format: biochemical. The conditions noted are these: for inhibition at 1 µM: read-out: % inhibition against DDR2.
Assay [7] has as its system TNF-α synthesis in J744A.1 macrophages. Put plainly: inhibition of TNF-α synthesis in LPS-activated macrophages (ELISA). Type of assay: cell-based. The following applies: Macrophage, read-out: Inhibition (%) of TNF-α synthesis. (In general: ELISA stands for enzyme-linked immunosorbent assay.)
Assay [8] relates to NO synthesis in J744A.1 macrophage. The assay can be described thus: inhibition of nitric oxide (NO) synthesis in LPS-activated macrophages (Griess reagent). Format: cell-based. The conditions noted are these: read-out: Inhibition (%) of NO synthesis. (In general: Nitrite, measured by Griess reagent, commonly stands in for NO production.)
Assay [9] has as its system α-smooth muscle actin protein expression in skin fibroblast cells. Put plainly: inhibition of α-smooth muscle actin expression in fibroblast activated by type I collagen and TGF-β1 (western blotting). The following applies: Mus musculus, 0.5 uM compound, 10 ng/ml TGF-β1, 48 hours, type I collagen, read-out: Inhibition (%) of α-smooth muscle actin increase. Type of assay: cell-based, Balb/C mouse. An excerpt: When fibroblast, […] alpha smooth muscle cells are converted to myofibroblast by activation, one of characteristic features is that α-smooth muscle actin protein expression is increased. Also myoblast cells with the increased α-smooth muscle actin expression have a character of an increased migration. These phenomena appear together with the activation of inflammatory cells and the activated myoblast-type cells are known to contribute directly to the pathology of inflammatory diseases. […] In this experiment, the expression level of alpha smooth muscle actin can be quantificated by measuring the density of α-smooth muscle actin protein band with densitometer after developing the X-ray film of chemiluminescence signal in western blotting experiment.

The subject of assay [10] is mouse skin fibroblast. Put plainly: inhibition of migration of activated fibroblast (scratch wound). The conditions noted are these: 0.5 uM compound, 10 ng/ml TGF-β1, 24 hours, read-out: Inhibition (%) of migration of activated fibroblast. Format: cell-based. The method, then:
The straight line of regular width was made using a micro pipette tip for a scratch wound on the mono-layer culture, and then the culture was exchanged to DMEM medium and incubated with 10 ng/ml of TGF-β1 in cell culture incubator of 37° C. for 24 hours. The cultured cells were fixed using formalin and stained with crystal violet. Photo-pictures were taken at 100× magnification in five location selected randomly in the scratched wound site of each stained culture dish and then the number of the cells moved into the scratched wound area was counted and averaged.

[11] abbreviates: 10 μM compound, 100 ng/ml LPS, 6 hours.

Read-outs that look alike come from different tables or passages of the source.

Sequence of c-Src tyrosine kinase (P12931 whole entry, looked up): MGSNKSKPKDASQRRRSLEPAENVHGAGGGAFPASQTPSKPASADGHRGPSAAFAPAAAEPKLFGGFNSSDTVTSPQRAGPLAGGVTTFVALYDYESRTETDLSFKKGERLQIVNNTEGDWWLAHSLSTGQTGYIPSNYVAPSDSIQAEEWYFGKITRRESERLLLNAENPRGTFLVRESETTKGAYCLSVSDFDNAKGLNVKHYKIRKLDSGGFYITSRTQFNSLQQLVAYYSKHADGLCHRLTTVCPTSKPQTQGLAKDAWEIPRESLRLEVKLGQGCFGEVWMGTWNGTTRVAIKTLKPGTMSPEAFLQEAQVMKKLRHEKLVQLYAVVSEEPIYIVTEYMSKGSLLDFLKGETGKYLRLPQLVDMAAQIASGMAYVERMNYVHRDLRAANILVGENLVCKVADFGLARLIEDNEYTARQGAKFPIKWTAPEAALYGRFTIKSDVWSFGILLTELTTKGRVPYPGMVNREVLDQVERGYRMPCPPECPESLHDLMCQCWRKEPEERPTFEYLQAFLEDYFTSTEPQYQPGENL
Sequence of Lyn tyrosine kinase (P07948 whole entry, the tested form may be a part): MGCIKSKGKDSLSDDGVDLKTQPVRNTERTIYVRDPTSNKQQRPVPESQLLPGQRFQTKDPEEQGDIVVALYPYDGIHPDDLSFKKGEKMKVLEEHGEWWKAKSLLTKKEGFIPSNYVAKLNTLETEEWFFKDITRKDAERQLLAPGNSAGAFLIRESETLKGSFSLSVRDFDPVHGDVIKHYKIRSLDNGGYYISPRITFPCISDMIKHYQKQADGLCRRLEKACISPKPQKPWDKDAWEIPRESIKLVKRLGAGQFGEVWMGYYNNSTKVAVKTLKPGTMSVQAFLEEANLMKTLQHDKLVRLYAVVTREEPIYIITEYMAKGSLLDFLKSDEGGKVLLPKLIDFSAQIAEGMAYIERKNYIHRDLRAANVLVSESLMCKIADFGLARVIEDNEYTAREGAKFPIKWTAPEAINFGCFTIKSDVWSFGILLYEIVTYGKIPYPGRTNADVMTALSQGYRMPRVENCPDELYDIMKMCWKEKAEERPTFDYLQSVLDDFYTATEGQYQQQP
Sequence of Hck tyrosine kinase (P08631 whole entry): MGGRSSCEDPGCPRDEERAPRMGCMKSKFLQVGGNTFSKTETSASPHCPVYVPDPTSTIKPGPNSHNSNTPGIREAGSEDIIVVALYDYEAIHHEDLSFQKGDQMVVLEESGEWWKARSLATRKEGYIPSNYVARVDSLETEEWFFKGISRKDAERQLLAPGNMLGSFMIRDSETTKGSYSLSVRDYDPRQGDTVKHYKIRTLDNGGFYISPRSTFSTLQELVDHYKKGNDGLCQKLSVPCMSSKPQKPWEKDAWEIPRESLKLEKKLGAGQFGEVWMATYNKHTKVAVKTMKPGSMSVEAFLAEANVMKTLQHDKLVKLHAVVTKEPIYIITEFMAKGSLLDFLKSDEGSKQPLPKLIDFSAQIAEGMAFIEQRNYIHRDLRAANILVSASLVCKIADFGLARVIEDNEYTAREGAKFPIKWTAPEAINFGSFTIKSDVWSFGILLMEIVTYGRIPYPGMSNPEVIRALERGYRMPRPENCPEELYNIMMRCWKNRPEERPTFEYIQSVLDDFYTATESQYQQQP
Sequence of Fgr tyrosine kinase (P09769 whole entry): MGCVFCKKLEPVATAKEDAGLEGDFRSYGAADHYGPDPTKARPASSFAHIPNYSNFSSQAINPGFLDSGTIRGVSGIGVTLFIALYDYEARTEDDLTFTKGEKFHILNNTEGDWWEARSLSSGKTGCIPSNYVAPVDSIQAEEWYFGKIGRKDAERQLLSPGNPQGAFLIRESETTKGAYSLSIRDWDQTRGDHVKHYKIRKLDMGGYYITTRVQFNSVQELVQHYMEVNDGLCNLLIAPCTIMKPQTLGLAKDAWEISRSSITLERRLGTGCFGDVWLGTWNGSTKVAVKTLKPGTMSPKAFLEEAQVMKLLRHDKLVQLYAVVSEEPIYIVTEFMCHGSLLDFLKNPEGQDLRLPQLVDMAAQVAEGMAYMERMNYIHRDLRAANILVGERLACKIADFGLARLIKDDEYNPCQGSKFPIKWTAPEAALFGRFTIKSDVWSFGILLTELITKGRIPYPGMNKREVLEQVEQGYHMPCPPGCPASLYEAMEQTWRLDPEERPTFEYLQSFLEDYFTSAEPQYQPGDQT
Sequence of DDR1 tyrosine kinase (Q08345 610-905): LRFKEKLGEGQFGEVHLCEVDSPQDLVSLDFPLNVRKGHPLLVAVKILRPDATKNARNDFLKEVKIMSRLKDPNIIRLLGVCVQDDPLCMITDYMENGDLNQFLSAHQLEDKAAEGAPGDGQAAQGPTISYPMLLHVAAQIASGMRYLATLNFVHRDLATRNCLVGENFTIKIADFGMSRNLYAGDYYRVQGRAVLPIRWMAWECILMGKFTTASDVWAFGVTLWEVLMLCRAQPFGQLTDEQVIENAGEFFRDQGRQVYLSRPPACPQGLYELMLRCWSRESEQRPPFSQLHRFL
Sequence of DDR2 tyrosine kinase (Q16832 563-849): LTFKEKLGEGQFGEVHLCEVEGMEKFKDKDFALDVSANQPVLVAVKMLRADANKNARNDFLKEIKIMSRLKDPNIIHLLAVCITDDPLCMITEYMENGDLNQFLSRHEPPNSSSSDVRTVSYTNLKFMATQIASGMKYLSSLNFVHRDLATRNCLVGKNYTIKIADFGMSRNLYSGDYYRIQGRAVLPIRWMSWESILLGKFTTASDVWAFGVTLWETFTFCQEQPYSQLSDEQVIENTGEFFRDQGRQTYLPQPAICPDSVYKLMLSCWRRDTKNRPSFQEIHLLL

On to `COc1cccc(Nc2ncnc3cc(-c4ccc(OCCN5CCOCC5)cc4)sc23)c1` [LCB 03-0018, N-(3-methoxyphenyl)-6-(4-(2-morpholinoethoxy)phenyl)thieno[3,2-d]pyrimidin-4-amine], for which the inhibition at 1 µM in assay [1] (1 uM compound), in assay [2] (1 uM compound), in assay [3] (1 uM compound), in assay [4] (1 uM compound), in assay [5] (1 uM compound) and in assay [6] (1 uM compound) was > 70% each time. The inhibition at 10 µM in [7] (setting [11]) is 68%; in [8] (10 μM compound, LPS, 24 hours), 89%.
Consider `COc1cccc(Nc2ncnc3cc(-c4cccs4)sc23)c1` [LCB 03-0030, (3-Methoxyphenyl)-(6-thiophene-2-yl-thieno[3,2-d]pyrimidin-4-yl)-amine], for which, in assay [1] (1 uM compound), the “% inhibition against c-Src” value is >40%. Further, in [2] (1 uM compound), the “% inhibition against Hck” value is on record as >30%. Besides, in [3] (1 uM compound), the “% inhibition against Fgr” value is on record as >30%. The “% inhibition against Lyn” value in assay [4] (1 uM compound) was >40%. Moreover, the “% inhibition against DDR1” value in assay [5] (1 uM compound) was >70%. Also, in assay [6] (1 uM compound), the “% inhibition against DDR2” value is >70%. Also, the inhibition at 10 µM worked out at 80% in [7] (setting [11]) and 96% in [8] (10 μM compound, LPS, 24 hours).
On to `Oc1cccc(Nc2ncnc3cc(-c4ccco4)sc23)c1` [LCB 03-0038, 3-(6-(furan-2-yl)thieno[3,2-d]pyrimidin-4-ylamino)phenol], for which the inhibition at 1 µM in assay [1] (1 uM compound) was > 60%; in assay [2] (1 uM compound), > 50%; in assay [3] (1 uM compound), > 50%; in assay [4] (1 uM compound), > 60%; in assay [5] (1 uM compound) it was > 70%; in [6] (1 uM compound) it was > 70%. The inhibition at 10 µM in assay [7] (setting [11]) is 85%; in [8] (10 μM compound, LPS, 24 hours) it was 88%.
Take `Oc1cccc(Nc2ncnc3cc(-c4ccoc4)sc23)c1` [LCB 03-0039, 3-(6-(furan-3-yl)thieno[3,2-d]pyrimidin-4-ylamino)phenol]: the inhibition at 1 µM in [1] (1 uM compound) is > 50%; in [2] (1 uM compound), > 50%; in assay [3] (1 uM compound), > 50%; in [4] (1 uM compound), > 50%; in assay [5] (1 uM compound), > 70%; in assay [6] (1 uM compound) it was > 70%. The inhibition at 10 µM in [7] (setting [11]) was 80%; in assay [8] (10 μM compound, LPS, 24 hours) it was 80%.
`O=C(Cc1ccc(-c2cc3ncnc(Nc4cccc(O)c4)c3s2)cc1)N1CCCC1` [LCB 03-0049, 2-(4-(4-(3-hydroxyphenylamino)thieno[3,2-d]pyrimidin-6-yl)phenyl)-1-(pyrrolidin-1-yl)ethanone]: the inhibition at 1 µM in assay [1] (1 uM compound) is > 40%; in assay [2] (1 uM compound), > 40%; in assay [3] (1 uM compound), > 40%; in assay [4] (1 uM compound), > 40%; in [5] (1 uM compound), > 80%; in [6] (1 uM compound) it was > 80%. Besides, the inhibition at 10 µM in assay [7] (setting [11]) came out at 57%; in assay [8] (10 μM compound, LPS, 24 hours) it was 88%.
As to `O=C(c1cccc(-c2cc3ncnc(Nc4cccc(O)c4)c3s2)c1)N1CCCC1` [LCB 03-0053, (3-(4-(3-hydroxyphenylamino)thieno[3,2-d]pyrimidin-6-yl)phenyl)(pyrrolidin-1-yl)methanone], the inhibition at 1 µM in assay [1] (1 uM compound) is > 70%; in [2] (1 uM compound), > 70%; in [3] (1 uM compound) it was > 70%; in assay [4] (1 uM compound) it was > 70%; in [5] (1 uM compound), > 80%; in assay [6] (1 uM compound), > 80%. The inhibition at 10 µM in assay [7] (setting [11]) was found to be 83%; in assay [8] (10 μM compound, LPS, 24 hours), 94%.
For `CCN(CC)C(=O)c1cccc(-c2cc3ncnc(Nc4cccc(O)c4)c3s2)c1` [LCB 03-0054, N,N-diethyl-3-(4-(3-hydroxyphenylamino)thieno[3,2-d]pyrimidin-6-yl)benzamide], the inhibition at 1 µM is > 60% in assay [1] (1 uM compound); > 60% in assay [2] (1 uM compound); > 60% in assay [3] (1 uM compound); > 50% in [4] (1 uM compound); > 80% in assay [5] (1 uM compound); > 80% in assay [6] (1 uM compound). The inhibition at 10 µM in [7] (setting [11]) is 77%; in [8] (10 μM compound, LPS, 24 hours), 92%.
Regarding `OCC1CCCN1Cc1ccc(-c2cc3ncnc(Nc4cccc(O)c4)c3s2)cc1` (centres unmarked) [LCB 03-0057, 3-(6-(4-((2-(hydroxymethyl)pyrrolidin-1-yl)methyl)phenyl)thieno[3,2-d]pyrimidin-4-ylamino)phenol], the inhibition at 1 µM in [1] (1 uM compound) is > 50%; in assay [2] (1 uM compound), > 50%; in assay [3] (1 uM compound) it was > 50%; in assay [4] (1 uM compound) it was > 50%; in assay [5] (1 uM compound) it was > 80%; in [6] (1 uM compound), > 80%. Moreover, the inhibition at 10 µM in [7] (setting [11]) came out at 64%; in assay [8] (10 μM compound, LPS, 24 hours), 87%.
Consider `CC1CCN(Cc2ccc(-c3cc4ncnc(Nc5cccc(O)c5)c4s3)cc2)CC1` [LCB 03-0058, 3-(6-(4-((4-methylpiperidin-1-yl)methyl)phenyl)thieno[3,2-d]pyrimidin-4-ylamino)phenol], for which the inhibition at 1 µM in assay [1] (1 uM compound) is > 40%; in [2] (1 uM compound) it was > 40%; in [3] (1 uM compound), > 40%; in assay [4] (1 uM compound), > 40%; in [5] (1 uM compound) it was > 80%; in assay [6] (1 uM compound), > 80%. Besides, the inhibition at 10 µM came out at 58% in assay [7] (setting [11]) and 80% in assay [8] (10 μM compound, LPS, 24 hours).
Turning to `Oc1cccc(Nc2ccnc3cc(-c4ccc(CN5CCCCC5)cc4)sc23)c1` [LCB 03-0097, 3-(2-(4-(piperidin-1-ylmethyl)phenyl)thieno[3,2-b]pyridin-7-ylamino)phenol], the inhibition at 1 µM was > 30% in assay [1] (1 uM compound); > 30% in [2] (1 uM compound); > 30% in [3] (1 uM compound); > 30% in assay [4] (1 uM compound); > 80% in assay [5] (1 uM compound); > 80% in [6] (1 uM compound). In addition, the inhibition at 0.5 µM in assay [9] was determined as 45%; in [10], 34%.
Turning to `Oc1cccc(Nc2ccnc3cc(-c4ccc(CN5CCNCC5)cc4)sc23)c1` [LCB 03-0098, 3-(2-(4-(piperazin-1-ylmethyl)phenyl)thieno[3,2-b]pyridin-7-ylamino)phenol], the inhibition at 1 µM in [1] (1 uM compound) is > 30%; in assay [2] (1 uM compound), > 30%; in assay [3] (1 uM compound), > 30%; in [4] (1 uM compound), > 30%; in [5] (1 uM compound), > 80%; in assay [6] (1 uM compound), > 80%. The figures for the inhibition at 0.5 µM in assay [9] and in assay [10] were 51% and 34%, respectively.
In the case of `CCNCc1ccc(-c2cc3nccc(Nc4cccc(O)c4)c3s2)cc1` [LCB 03-0099, 3-(2-(4-((ethylamino)methyl)phenyl)thieno[3,2-b]pyridin-7-ylamino)phenol], the inhibition at 1 µM was > 30% in assay [1] (1 uM compound); > 30% in [2] (1 uM compound); > 30% in assay [3] (1 uM compound); > 30% in [4] (1 uM compound); > 80% in assay [5] (1 uM compound); > 80% in assay [6] (1 uM compound). Besides, the inhibition at 0.5 µM came out at 39% in assay [9] and 29% in [10].
For `Oc1cccc(Nc2ncnc3cc(-c4cc(CN5CCCC5)cs4)sc23)c1` [LCB 03-0101, 3-(6-(4-(pyrrolidin-1-ylmethyl)thiophene-2-yl)thieno[3,2-d]pyrimidin-4-ylamino)phenol], the inhibition at 1 µM in assay [1], in assay [2], in [3], in assay [4], in assay [5] and in assay [6] was > 70% in each case. For the same molecule, the inhibition at 10 µM is 71% in [7] (6 h) and 76% in assay [8] (24 h).
